Results on one molecule are retold here after patent US20150366862A1, “Use of flibanserin for the treatment of pre-menopausal sexual desire disorders” (Sprout Pharmaceuticals, Inc., priority 2005, published 2015).

The subject of one test is 5-HT2-receptor. Conditions: background statement, no value given; cited from earlier work.
The subject of test [1] is pre-menopausal female patients with HSDD. The experiment in a line: twelve-week randomized, double-blind, placebo-controlled proof of concept trial in pre-menopausal female patients with HSDD (IVR-FSBQ). Format: in vivo, human. The method, then: This trial was designed as a prospective, multi-center, twelve-week, randomized, double-blind, placebo-controlled, proof of concept, parallel-group trial comparing the effects of flibanserin (maximum total daily dose: 100 mg b.i.d.) to placebo in pre-menopausal female patients with HSDD. Seventy-five patients were to be randomized to each treatment group.
This proof of concept trial was designed to assess whether twelve weeks of flibanserin treatment produced a clinically meaningful therapeutic response in healthy female patients with HSDD (as determined by DSM-IV criteria). Efficacy for flibanserin was assessed versus a parallel placebo group.
After a Screening period (no treatment) of approximately twenty-eight days, eligible patients were randomized into the twelve week, double-blind portion of the trial during which they were to take study medication in the morning and in the evening about 12 hours apart.
Patients must have been pre-menopausal females who were 18 to 45 years of age with the primary diagnosis of HSDD, acquired type, according to DSM-IV criteria. The current episode must have been at least 24 weeks in duration by the Baseline Visit.
The baseline severity criterion was from the Arizona Sexual Experiences Scale, requiring a score of 5 or 6 (very weak or no sex drive) on the sex drive item. […]

The target in a further test is T1, 5-HT-1A receptor (Homo sapiens, UniProt P08908).
T1 sequence (P08908 1-422): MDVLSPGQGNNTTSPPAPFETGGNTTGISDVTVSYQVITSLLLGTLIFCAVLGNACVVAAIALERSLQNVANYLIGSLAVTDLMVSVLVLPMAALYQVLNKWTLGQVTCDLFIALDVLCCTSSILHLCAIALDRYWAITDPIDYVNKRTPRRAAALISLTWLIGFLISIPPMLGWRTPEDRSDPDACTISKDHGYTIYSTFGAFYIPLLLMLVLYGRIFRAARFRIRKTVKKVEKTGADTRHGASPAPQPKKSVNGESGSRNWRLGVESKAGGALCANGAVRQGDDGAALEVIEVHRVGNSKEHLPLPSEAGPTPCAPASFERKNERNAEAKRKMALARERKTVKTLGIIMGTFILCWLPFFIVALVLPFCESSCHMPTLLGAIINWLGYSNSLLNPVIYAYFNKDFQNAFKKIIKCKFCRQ
Conditions: background statement, no value given; cited from earlier work.

In the case of `O=c1[nH]c2ccccc2n1CCN1CCN(c2cccc(C(F)(F)F)c2)CC1` [flibanserin, 1-[2-(4-(3-trifluoromethyl-phenyl)piperazin-1-yl)ethyl]-2,3-dihydro-1H-benzimidazol-2-one], the “affinity for the 5-HT2-receptor” value in the test on 5-HT2-receptor is “shows affinity”. The “IVR-FSBQ Frequency of Sexual Thoughts, monthly mean change from baseline vs placebo” value in test [1] (pre-menopausal women with HSDD, 50 mg b.i.d. (up to 100 mg b.i.d. from Week 8), 12 weeks, FAS, LOCF, FIG. 1) is on record as “clearly demonstrates the efficacy”. Moreover, in test [1] (studies of pre-menopausal female patients suffering from sexual dysfunction), the “sexual desire enhancing properties” value is “displays sexual desire enhancing properties”. Moreover, the “affinity for the 5-HT-1A receptor” value at 5-HT-1A receptor is recorded as “shows affinity”.
